Some test systems named below: DMS-114; DMS-273; HOP-18; KM-20L2; LXFL 529; M19-MEL; SNB-78; XF498; RXF 631.
Assay in all cases: NCI anticancer screen, dose series, 48 h

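Each compound was tested at five concentrations against cells in 96-well plates for 48 hours. GI50 marks 50% less growth.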 Active and inactive are the calls of the source. Cut-off read from the data, not from the text of the source: active = GI50 up to about 1.1 µM and inactive = higher.

For `CCc1cccc(CC)c1NC(=O)/C(Cl)=C(/Cl)C(=O)O`, the GI50 in the assay with DMS-114 was 23.2 µM (inactive); in the assay on DMS-273, 50 µM (inactive); in the assay on HOP-18, 24.3 µM (inactive); with KM-20L2 it was 43.8 µM (inactive); in the assay on LXFL 529, 13.6 µM (inactive); in the assay with M19-MEL it was 31.6 µM (inactive). Further, the results for the GI50 with SNB-78 and in the assay with XF498 were 37.7 µM (inactive) and 22.6 µM (inactive), respectively.
For `COC(=O)C1C(O)CC(c2ccccn2)N(Cc2ccccc2)C1c1ccccn1` (stereo unspecified), the GI50 in the assay on DMS-114, in the assay on DMS-273, with HOP-18, with KM-20L2, in the assay on LXFL 529 and in the assay on M19-MEL was > 100 µM (inactive) each time. Moreover, the GI50 with RXF 631 and with SNB-78 was > 100 µM (inactive) each time.
Turning to `O=C(/C=C/c1ccccc1)/C=C/c1ccccc1O`, the GI50 in the assay on DMS-114 was 17.8 µM (inactive); with HOP-18, 0.488 µM (active); with KM-20L2, 19.1 µM (inactive); in the assay on LXFL 529, 16.8 µM (inactive); in the assay on M19-MEL it was 17.9 µM (inactive); with SNB-78, 37.3 µM (inactive). In the assay on XF498, the GI50 is 49.1 µM (inactive).
As for `COC(=O)C1=C(c2cc(OC)c(OC)c(OC)c2)OC(c2cc(OC)c(OC)c(OC)c2)C1COC(C)=O` (stereo unspecified), the GI50 in the assay with DMS-114 is 34.7 µM (inactive); in the assay on DMS-273 it was 25.6 µM (inactive); with KM-20L2 it was 71.6 µM (inactive); in the assay with LXFL 529 it was 34.4 µM (inactive); in the assay on M19-MEL it was 32.1 µM (inactive); in the assay on RXF 631 it was 17.4 µM (inactive). Besides, the GI50 is 45.7 µM (inactive) in the assay on SNB-78 and 32.4 µM (inactive) in the assay on XF498.
`CC1=C(C(=O)Nc2ccc([N+](=O)[O-])cc2)C(c2ccc(N(C)C)cc2)C(C(=O)Nc2ccc([N+](=O)[O-])cc2)=C(C)N1`: the GI50 was 11.4 µM (inactive) with KM-20L2, 16.8 µM (inactive) in the assay on LXFL 529, 15.6 µM (inactive) in the assay with M19-MEL and 29.2 µM (inactive) with SNB-78.
In the case of `COC(=O)c1ccc(Cc2ccc(C(=O)OC)o2)o1`, the GI50 is > 378 µM (inactive) in the assay with DMS-273; 38.5 µM (inactive) in the assay on HOP-18; > 378 µM (inactive) with KM-20L2; > 378 µM (inactive) in the assay with LXFL 529; > 378 µM (inactive) with M19-MEL; > 378 µM (inactive) with RXF 631.
With `Cc1ccc(Nc2ccc(Nc3ccc(C)cc3)c3c2C(=O)c2c(O)ccc(O)c2C3=O)cc1`, the GI50 was > 100 µM (inactive) with DMS-114; > 100 µM (inactive) with DMS-273; 75.2 µM (inactive) in the assay on LXFL 529; > 100 µM (inactive) with M19-MEL; 68.1 µM (inactive) in the assay with SNB-78; > 100 µM (inactive) with XF498.
On to `Nc1nc2c(nnn2C2C=C(CO)C(O)C2O)c(=O)[nH]1` (stereo unspecified), for which the GI50 with DMS-114, in the assay with DMS-273, in the assay with HOP-18, with KM-20L2, with LXFL 529 and with M19-MEL was > 100 µM (inactive) in each case. For the same molecule, the GI50 in the assay with SNB-78 is 95.3 µM (inactive); with XF498 it was > 100 µM (inactive).
For the molecule `COC(=O)C(=O)C(C(=O)C1=NS(=O)(=O)c2cc(S(N)(=O)=O)c(Cl)cc2N1)c1nc2ccc(C(=O)c3ccccc3)cc2nc1O` (stereo unspecified), the GI50 is > 100 µM (inactive) in the assay with DMS-273; > 100 µM (inactive) with HOP-18; > 100 µM (inactive) with KM-20L2; 38.9 µM (inactive) in the assay with LXFL 529; > 100 µM (inactive) in the assay on M19-MEL; 86.9 µM (inactive) in the assay on RXF 631. In addition, the GI50 was 85.1 µM (inactive) in the assay on SNB-78 and 39 µM (inactive) in the assay with XF498.
For the molecule `CC1=C(C(=O)Nc2cccc(C(F)(F)F)c2)C(c2ccccc2F)C(C(=O)Nc2cccc(C(F)(F)F)c2)=C(C)N1`, the GI50 was 3.33 µM (inactive) in the assay with DMS-114; 4.51 µM (inactive) in the assay on KM-20L2; 5.57 µM (inactive) in the assay on LXFL 529; 7.45 µM (inactive) in the assay with M19-MEL; 10 µM (inactive) in the assay with RXF 631; 13.9 µM (inactive) in the assay with SNB-78. Also, in the assay on XF498, the GI50 was 2.09 µM (inactive).
On to `c1ccc(-c2[nH]c(-c3ccccc3)c(-c3cnccn3)c2-c2cnccn2)cc1`, for which the GI50 in the assay on DMS-114, in the assay with DMS-273, in the assay on HOP-18, in the assay on KM-20L2, in the assay on M19-MEL and in the assay with SNB-78 was > 100 µM (inactive) in each case. For the same molecule, in the assay with XF498, the GI50 was 95.7 µM (inactive).
With `NNC(=S)N/N=C(\c1nc2ccc(Cl)cc2nc1O)C(O)c1ccc(Cl)cc1Cl` (stereo unspecified), the GI50 in the assay with DMS-114, with DMS-273, with HOP-18, with KM-20L2, in the assay on LXFL 529 and with M19-MEL was > 100 µM (inactive) in each case. Besides, the GI50 with RXF 631, with SNB-78 and with XF498 was > 100 µM (inactive) in each case.
On to `O=C(O)CCSC(=S)Nc1ccc([N+](=O)[O-])cc1`, for which the GI50 was 37.7 µM (inactive) with DMS-114; 75.9 µM (inactive) with DMS-273; > 100 µM (inactive) in the assay on KM-20L2; 46.6 µM (inactive) in the assay with LXFL 529; > 100 µM (inactive) in the assay on SNB-78.
With `CC1=NN(C(=O)Cc2ccccc2)C(=O)/C1=C\c1ccc(O)cc1`, the GI50 in the assay with DMS-114 is > 100 µM (inactive); in the assay with KM-20L2, > 100 µM (inactive); in the assay on LXFL 529, > 100 µM (inactive); in the assay on M19-MEL, > 100 µM (inactive); with SNB-78, 36.8 µM (inactive); with XF498, > 100 µM (inactive).
For `CN1CC(=O)N(C)c2ncn(Cc3ccccc3)c2C1=O`, the GI50 in the assay on DMS-114 is > 100 µM (inactive); in the assay with DMS-273, > 100 µM (inactive); in the assay on HOP-18 it was > 100 µM (inactive); in the assay on LXFL 529, > 100 µM (inactive); with M19-MEL, > 100 µM (inactive); in the assay on RXF 631, 4.68 µM (inactive). Besides, the GI50 with SNB-78 is > 100 µM (inactive); in the assay on XF498, 17 µM (inactive).
Turning to `CC(C)(Oc1ccc2c(=O)cc(-c3ccccc3)oc2c1)C(=O)Nc1c(Cl)cccc1Cl`, the GI50 was 19.7 µM (inactive) in the assay on DMS-114; 64.4 µM (inactive) in the assay with DMS-273; > 100 µM (inactive) in the assay with HOP-18; > 100 µM (inactive) with KM-20L2; 81.7 µM (inactive) in the assay on LXFL 529; 68.2 µM (inactive) in the assay with M19-MEL. The GI50 with SNB-78 is > 100 µM (inactive); with XF498, 14.3 µM (inactive).
Take `O=C1CCC(C(=O)O)C2=C1CCCC2` (stereo unspecified): the GI50 in the assay with DMS-114 is > 100 µM (inactive); in the assay with DMS-273 it was 17.1 µM (inactive); in the assay with HOP-18, > 100 µM (inactive); in the assay with LXFL 529, > 100 µM (inactive); with M19-MEL, > 100 µM (inactive); in the assay with SNB-78 it was > 100 µM (inactive). The GI50 with XF498 was > 100 µM (inactive).
On to `Oc1ncnc2c1CCCN2`, for which the GI50 is > 100 µM (inactive) with DMS-114; 16.5 µM (inactive) in the assay with HOP-18; > 100 µM (inactive) in the assay with KM-20L2; > 100 µM (inactive) with LXFL 529; > 100 µM (inactive) with M19-MEL; > 100 µM (inactive) in the assay on SNB-78.
